From PMC10689823, “Discovery of a Drug-like, Natural Product-Inspired DCAF11 Ligand Chemotype” (Nature Communications, 2023)

Molecular target: BRD4S-TagBFP reporter (Homo sapiens, UniProt O60885)
Experiment: FACS-based CRISPR/Cas9 BRD4 protein stability screen
Description: The virus containing supernatant was cleared of cellular debris by filtration through a 0.45-µm PES filter and used to transduce KBM7 BRD4-BFP reporter cells harboring a doxycycline inducible Cas9 allele at a multiplicity of infection (MOI) of 0.05 and 1,000-fold library representation. Library-transduced cells were selected with G418 (1 mg ml^−1, Gibco) for 14 days, expanded and Cas9 expression was induced with DOX (0.4 µg ml^−1, PanReac AppliChem).
Cells were washed with and stored in FACS buffer (PBS containing 5% FBS and 1 mM EDTA) at 4 °C overnight. The next day, cells were strained trough a 35 µm nylon mesh and sorted on a BD FACSAria™ Fusion (BD Biosciences) using a 85 µm nozzle. Aggregates, dead (ZombieNIR positive), Cas9-negative (GFP) and sgRNA library-negative (Thy1.1-APC) cells were excluded, and the remaining cells were sorted based on their BRD4-BFP and mCherry levels into BRD4^HIGH (10% of cells), BRD4^MID (30%) and BRD4^LOW (10%) fractions. For each sample, cells corresponding to at least 2,000-fold library representation were sorted per replicate.
Next-generation sequencing (NGS) libraries of sorted cell fractions were prepared as previously described[25]. In brief, genomic DNA was isolated by cell lysis (10 mM Tris-HCl, 150 mM NaCl, 10 mM EDTA, 0.1% SDS), proteinase K treatment (New England Biolabs) and DNAse-free RNAse digest (Thermo Fisher Scientific), followed by two rounds of phenol extraction and 2-propanol precipitation. Isolated genomic DNA was subjected to several freeze–thaw cycles before nested polymerase chain reaction (PCR) amplification of the sgRNA cassette.
Barcoded NGS libraries for each sorted population were generated using a two-step PCR protocol using AmpliTaq Gold (Invitrogen). The resulting PCR products were purified using Mag-Bind® TotalPure NGS beads (Omega Bio-tek) and amplified in a second PCR introducing the standard Illumina adapters. The final Illumina libraries were bead-purified, pooled and sequenced on a HiSeq 3500 platform (Illumina).
Screen analysis was performed as previously described[25]. Briefly, sequencing reads were quantified using the crispr-process-nf Nextflow workflow, available at https://github.com/ZuberLab/crispr-process-nf/tree/566f6d46bbcc2a3f49f51bbc96b9820f408ec4a3. For statistical analysis, we used the crispr-mageck-nf Nextflow workflow, available at https://github.com/ZuberLab/crispr-mageck-nf/tree/c75a90f670698bfa78bfd8be786d6e5d6d4fc455. To calculate gene-level enrichment, the sorted populations (BRD4^HIGH or BRD4^LOW) were compared to the BRD4^MID populations in MAGeCK (0.5.9)[46], using median normalized read counts.

Low_lfc (Gene FBXL18, Mageck_Gene level): 0.15
Low_logP (Gene FBXL18, Mageck_Gene level): 0.58
High_lfc (Gene FBXL19, Mageck_Gene level): -0.07
High_logP (Gene FBXL19, Mageck_Gene level): 0.17
Low_lfc (Gene FBXL19, Mageck_Gene level): 0.26
Low_logP (Gene FBXL19, Mageck_Gene level): 0.97
High_lfc (Gene FBXL20, Mageck_Gene level): 0.09
High_logP (Gene FBXL20, Mageck_Gene level): 0.36
Low_lfc (Gene FBXL20, Mageck_Gene level): -0.03
Low_logP (Gene FBXL20, Mageck_Gene level): 0.19
High_lfc (Gene FBXL21, Mageck_Gene level): 0.06
High_logP (Gene FBXL21, Mageck_Gene level): 0.36
Low_lfc (Gene FBXL21, Mageck_Gene level): -0.13
Low_logP (Gene FBXL21, Mageck_Gene level): 0.07
High_lfc (Gene FBXL22, Mageck_Gene level): 0.4
Low_lfc (Gene FBXL22, Mageck_Gene level): 0.39
Low_logP (Gene FBXL22, Mageck_Gene level): 1.13
High_lfc (Gene FBXO2, Mageck_Gene level): 0.07
High_logP (Gene FBXO2, Mageck_Gene level): 0.12
Low_lfc (Gene FBXO2, Mageck_Gene level): -0.12
Low_logP (Gene FBXO2, Mageck_Gene level): 0.08
High_lfc (Gene FBXO10, Mageck_Gene level): 0.07
High_logP (Gene FBXO10, Mageck_Gene level): 0.21
Low_lfc (Gene FBXO10, Mageck_Gene level): -0.41
Low_logP (Gene FBXO10, Mageck_Gene level): 0.06
High_lfc (Gene FBXO11, Mageck_Gene level): -0.62
High_logP (Gene FBXO11, Mageck_Gene level): 0
Low_lfc (Gene FBXO11, Mageck_Gene level): 0.03
Low_logP (Gene FBXO11, Mageck_Gene level): 0.18
High_lfc (Gene FBXO15, Mageck_Gene level): -0.25
High_logP (Gene FBXO15, Mageck_Gene level): 0.04
Low_lfc (Gene FBXO15, Mageck_Gene level): -0.28
Low_logP (Gene FBXO15, Mageck_Gene level): 0.22
High_lfc (Gene FBXO16, Mageck_Gene level): -0.06
High_logP (Gene FBXO16, Mageck_Gene level): 0.3
Low_lfc (Gene FBXO16, Mageck_Gene level): -0.09
Low_logP (Gene FBXO16, Mageck_Gene level): 0.14
High_lfc (Gene FBXO17, Mageck_Gene level): -0.2
High_logP (Gene FBXO17, Mageck_Gene level): 0.06
Low_lfc (Gene FBXO17, Mageck_Gene level): 0.03
Low_logP (Gene FBXO17, Mageck_Gene level): 0.49
High_lfc (Gene FBXO18, Mageck_Gene level): -0.14
High_logP (Gene FBXO18, Mageck_Gene level): 0.12
Low_lfc (Gene FBXO18, Mageck_Gene level): 0.16
Low_logP (Gene FBXO18, Mageck_Gene level): 0.25
High_lfc (Gene FBXO21, Mageck_Gene level): 0.22
High_logP (Gene FBXO21, Mageck_Gene level): 0.42
Low_lfc (Gene FBXO21, Mageck_Gene level): 0
Low_logP (Gene FBXO21, Mageck_Gene level): 0.2
High_lfc (Gene FBXO22, Mageck_Gene level): -0.12
High_logP (Gene FBXO22, Mageck_Gene level): 0.02
Low_lfc (Gene FBXO22, Mageck_Gene level): 0.34
Low_logP (Gene FBXO22, Mageck_Gene level): 0.76
High_lfc (Gene FBXO24, Mageck_Gene level): -0.07
High_logP (Gene FBXO24, Mageck_Gene level): 0.15
Low_lfc (Gene FBXO24, Mageck_Gene level): 0.03
Low_logP (Gene FBXO24, Mageck_Gene level): 0.43
High_lfc (Gene FBXO25, Mageck_Gene level): -0.22
High_logP (Gene FBXO25, Mageck_Gene level): 0.18
Low_lfc (Gene FBXO25, Mageck_Gene level): -0.04
Low_logP (Gene FBXO25, Mageck_Gene level): 0.27
High_lfc (Gene FBXO27, Mageck_Gene level): -0.12
High_logP (Gene FBXO27, Mageck_Gene level): 0.16
Low_lfc (Gene FBXO27, Mageck_Gene level): 0.09
Low_logP (Gene FBXO27, Mageck_Gene level): 0.72
High_lfc (Gene FBXO28, Mageck_Gene level): 0.16
High_logP (Gene FBXO28, Mageck_Gene level): 0.49
Low_lfc (Gene FBXO28, Mageck_Gene level): -0.29
Low_logP (Gene FBXO28, Mageck_Gene level): 0.02
High_lfc (Gene FBXO30, Mageck_Gene level): -0.1
High_logP (Gene FBXO30, Mageck_Gene level): 0.16
Low_lfc (Gene FBXO30, Mageck_Gene level): 0.12
Low_logP (Gene FBXO30, Mageck_Gene level): 0.1
High_lfc (Gene FBXO31, Mageck_Gene level): 0.04
High_logP (Gene FBXO31, Mageck_Gene level): 0.36
Low_lfc (Gene FBXO31, Mageck_Gene level): -0.01
Low_logP (Gene FBXO31, Mageck_Gene level): 0.26
High_lfc (Gene FBXO32, Mageck_Gene level): 0.06
High_logP (Gene FBXO32, Mageck_Gene level): 0.08
Low_lfc (Gene FBXO32, Mageck_Gene level): 0.38
Low_logP (Gene FBXO32, Mageck_Gene level): 0.68
High_lfc (Gene FBXO33, Mageck_Gene level): -0.54
High_logP (Gene FBXO33, Mageck_Gene level): 0
Low_lfc (Gene FBXO33, Mageck_Gene level): -0.07
Low_logP (Gene FBXO33, Mageck_Gene level): 0.18
High_lfc (Gene FBXO34, Mageck_Gene level): 0.15
High_logP (Gene FBXO34, Mageck_Gene level): 0.29
Low_lfc (Gene FBXO34, Mageck_Gene level): -0.13
Low_logP (Gene FBXO34, Mageck_Gene level): 0.33
High_lfc (Gene FBXO36, Mageck_Gene level): -0.26
High_logP (Gene FBXO36, Mageck_Gene level): 0.21
Low_lfc (Gene FBXO36, Mageck_Gene level): 0.2
Low_logP (Gene FBXO36, Mageck_Gene level): 0.47
High_lfc (Gene FBXO38, Mageck_Gene level): -0.33
High_logP (Gene FBXO38, Mageck_Gene level): 0.02
Low_lfc (Gene FBXO38, Mageck_Gene level): 0.01
Low_logP (Gene FBXO38, Mageck_Gene level): 0.38
High_lfc (Gene FBXO39, Mageck_Gene level): 0.06
High_logP (Gene FBXO39, Mageck_Gene level): 0.22
Low_lfc (Gene FBXO39, Mageck_Gene level): 0.01
Low_logP (Gene FBXO39, Mageck_Gene level): 0.18
CRL substrate receptor scoring as top hit (gene required for BRD4 degradation) (KBM7 BRD4-BFP reporter cells, 9 0.5 µM, 10 1 µM, dBET6 10 nM, 6 hours): DCAF11
High_lfc (gene FBXO3): 0.34
High_logP (gene FBXO3): 0.33
Low_lfc (gene FBXO3): -0.08
Low_logP (gene FBXO3): 0.04
High_lfc (gene FBXO4): 0.05
High_logP (gene FBXO4): 0.31
Low_lfc (gene FBXO4): -0.07
Low_logP (gene FBXO4): 0.01
High_lfc (gene FBXO5): 0.23
High_logP (gene FBXO5): 0.83
Low_lfc (gene FBXO5): -0.27
Low_logP (gene FBXO5): 0.05
High_lfc (gene FBXO6): -0.06
High_logP (gene FBXO6): 0.34
Low_lfc (gene FBXO6): -0.26
Low_logP (gene FBXO6): 0.15
High_lfc (gene FBXO7): -0.21
High_logP (gene FBXO7): 0
Low_lfc (gene FBXO7): -0.1
Low_logP (gene FBXO7): 0.14
High_lfc (gene FBXO8): -0.41
High_logP (gene FBXO8): 0.01
Low_lfc (gene FBXO8): -0.3
Low_logP (gene FBXO8): 0.02
High_lfc (gene FBXO9): -0.11
High_logP (gene FBXO9): 0.02
Low_lfc (gene FBXO9): -0.13
Low_logP (gene FBXO9): 0.09
High_lfc (gene FBXO40): -0.14
High_logP (gene FBXO40): 0.09
Low_lfc (gene FBXO40): -0.23
Low_logP (gene FBXO40): 0.3
High_lfc (gene FBXO41): 0.03
High_logP (gene FBXO41): 0.17
Low_lfc (gene FBXO41): -0.11
Low_logP (gene FBXO41): 0.05
High_lfc (gene FBXO42): 0.02
High_logP (gene FBXO42): 0.05
Low_lfc (gene FBXO42): 0.34
Low_logP (gene FBXO42): 1.46
High_lfc (gene FBXO43): -0.17
High_logP (gene FBXO43): 0.11
Low_lfc (gene FBXO43): -0.15
Low_logP (gene FBXO43): 0.08
High_lfc (gene FBXO44): -0.16
High_logP (gene FBXO44): 0.39
Low_lfc (gene FBXO44): -0.37
Low_logP (gene FBXO44): 0.19
High_lfc (gene FBXO45): -0.07
High_logP (gene FBXO45): 0.11
Low_lfc (gene FBXO45): -0.31
Low_logP (gene FBXO45): 0.11
High_lfc (gene FBXO46): -0.12
High_logP (gene FBXO46): 0.12
Low_lfc (gene FBXO46): 0.18
Low_logP (gene FBXO46): 0.84
High_lfc (gene FBXO47): 0.35
High_logP (gene FBXO47): 0.59
Low_lfc (gene FBXO47): 0.65
Low_logP (gene FBXO47): 1.14
High_lfc (gene FBXO48): -0.14
High_logP (gene FBXO48): 0.09
Low_lfc (gene FBXO48): -0.68
Low_logP (gene FBXO48): 0.01
High_lfc (gene FBXW2): -0.16
High_logP (gene FBXW2): 0.05
Low_lfc (gene FBXW2): -0.15
Low_logP (gene FBXW2): 0.23
High_lfc (gene FBXW4): -0.23
High_logP (gene FBXW4): 0.02
Low_lfc (gene FBXW4): 0.1
Low_logP (gene FBXW4): 0.3
High_lfc (gene FBXW5): -0.14
High_logP (gene FBXW5): 0.29
Low_lfc (gene FBXW5): 0.04
Low_logP (gene FBXW5): 0.25
High_lfc (gene FBXW7): 0.42
High_logP (gene FBXW7): 1.76
Low_lfc (gene FBXW7): 0.03
Low_logP (gene FBXW7): 0.22
High_lfc (gene FBXW8): -0.01
High_logP (gene FBXW8): 0.23
Low_lfc (gene FBXW8): 0.37
Low_logP (gene FBXW8): 0.66
High_logP (gene FBXW9): 0.71
Low_logP (gene FBXW9): 1.01
High_lfc (gene FBXW10): -0.01
High_logP (gene FBXW10): 0.15
Low_lfc (gene FBXW10): -0.13
Low_logP (gene FBXW10): 0.01
High_lfc (gene FBXW11): -0.15
High_logP (gene FBXW11): 0.05
Low_lfc (gene FBXW11): -0.16
Low_logP (gene FBXW11): 0.14
High_lfc (gene FBXW12): -0.01
High_logP (gene FBXW12): 0.11
Low_lfc (gene FBXW12): 0.06
Low_logP (gene FBXW12): 0.36
High_logP (gene FEM1A): 0.33
SMILES: Cc1sc2c(c1C)C(c1ccc(Cl)cc1)=NC(CC(=O)NCCOCCOCCOCCOc1c(Br)cc(C=C3C(=O)Nc4ccc(Br)cc43)cc1Br)c1nnc(C)n1-2 (stereo not drawn) [Compound 10]
